The source of these data is US8013153B2, “Substituted pyrimidine kinase inhibitors” (Janssen Pharmaceutica, N.V., priority 2006, dated 2011).

Molecules are shown by their SMILES.

Experiment [1] addresses T1, rat VEGF-R2 kinase domain (Rattus norvegicus, UniProt O08775).
T1 construct: amino acids 786-1343 of the rat VEGF-R2 kinase domain; polyhistidine (N)
The experiment is described as follows: VEGF-R2 Screening Assay. It is filed as biochemical. The following applies: > means no observed 50% inhibition at the indicated test concentration; ~ means approximately 50% inhibition at that concentration; read-out: IC50 VEGF-R2.

For a further experiment, the system named is A375 malignant melanoma. Kind of experiment: Inhibition of in vitro cell proliferation (A375).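 Further: cells plated for 24 h, given compound for 24 h, then labelled with 14C-thymidine for another 24 h, with DMSO-only wells as control and counts read by scintillation.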 The class given is cell-based, human. The following applies: Homo sapiens, A-375, 14C-thymidine incorporation.
The target in the next experiment is T2, HER2 cytoplasmic domain (Homo sapiens, UniProt P04626).
T2 construct: polyhistidine (N)
The experiment is described as follows: HER2 Kinase Screening Assay. The class given is biochemical. The settings on record: > means no observed 50% inhibition at the indicated test concentration; ~ means approximately 50% inhibition at that concentration.

In a further experiment the test system is HCT-116 colon carcinoma. The experiment is described as follows: Inhibition of in vitro cell proliferation (HCT116).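 Further: cells exposed to compound for 24 h, then 14C-thymidine added for a further 24 h and its uptake into DNA counted by scintillation, DMSO-only wells as control.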 The class given is cell-based, human. The settings on record: Homo sapiens, HCT-116, 14C-thymidine incorporation.
In another experiment the target is T3, CDK1:Cyclin-B (Homo sapiens, UniProt P06493).
T3 construct: purchased New England Biolabs, Beverly, Mass; 6020; host or cells: insect cells
Kind of experiment: CDK1 Screening Assay. It is filed as biochemical.

The subject of experiment [2] is HeLa cervical adenocarcinoma. Kind of experiment: Inhibition of in vitro cell proliferation (HeLa).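 Further: cells exposed to compound for 24 h, then labelled 24 h with methyl 14C-thymidine, with uptake into DNA counted by scintillation against DMSO-only control wells.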 The settings on record: Homo sapiens, 14C-thymidine incorporation. It is filed as cell-based, human.
A further experiment has as its target T4, RET cytoplasmic domain (Homo sapiens, UniProt P07949).
T4 construct: the RET cytoplasmic domain consisting of the last 492 amino acids of the intracellular domain; histidine tag (N); made in house; host or cells: Hi5 insect cells
T4 sequence (P07949 658-1114 limits assumed): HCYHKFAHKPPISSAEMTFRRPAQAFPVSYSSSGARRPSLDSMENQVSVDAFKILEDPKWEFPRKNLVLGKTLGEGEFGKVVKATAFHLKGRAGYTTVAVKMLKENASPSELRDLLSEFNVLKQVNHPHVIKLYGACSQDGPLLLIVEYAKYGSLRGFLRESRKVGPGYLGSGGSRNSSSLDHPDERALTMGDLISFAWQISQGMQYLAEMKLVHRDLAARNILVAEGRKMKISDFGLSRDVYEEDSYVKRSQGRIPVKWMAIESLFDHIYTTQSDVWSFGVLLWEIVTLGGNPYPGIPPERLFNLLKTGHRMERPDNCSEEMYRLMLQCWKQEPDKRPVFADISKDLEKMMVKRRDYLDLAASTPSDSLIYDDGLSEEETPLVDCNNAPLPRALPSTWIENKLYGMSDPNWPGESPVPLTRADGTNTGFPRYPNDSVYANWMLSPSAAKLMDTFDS
Kind of experiment: RET Kinase Screening Assay. The class given is biochemical.

A further experiment has as its target T5, murine Aurora-A (Mus musculus, UniProt P97477).
T5 construct: replaced with the full length protein encoding the murine Aurora-A; made in house; host or cells: sf9 insect cells
T5 sequence (P97477 1-395): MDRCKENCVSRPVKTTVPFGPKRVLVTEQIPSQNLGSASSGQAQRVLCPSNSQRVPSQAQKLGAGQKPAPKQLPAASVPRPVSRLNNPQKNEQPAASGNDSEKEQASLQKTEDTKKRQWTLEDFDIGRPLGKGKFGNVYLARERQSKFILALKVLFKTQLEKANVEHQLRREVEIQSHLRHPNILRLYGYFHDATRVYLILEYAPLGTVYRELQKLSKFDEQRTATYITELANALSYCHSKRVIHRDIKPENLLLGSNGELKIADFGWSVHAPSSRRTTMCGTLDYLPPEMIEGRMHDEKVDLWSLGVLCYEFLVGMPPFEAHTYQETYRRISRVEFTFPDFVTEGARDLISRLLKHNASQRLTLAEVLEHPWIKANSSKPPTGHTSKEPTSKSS
Kind of experiment: Aurora-A Screening Assay. It is filed as biochemical.

T2 sequence (P04626 676-1255 limits assumed): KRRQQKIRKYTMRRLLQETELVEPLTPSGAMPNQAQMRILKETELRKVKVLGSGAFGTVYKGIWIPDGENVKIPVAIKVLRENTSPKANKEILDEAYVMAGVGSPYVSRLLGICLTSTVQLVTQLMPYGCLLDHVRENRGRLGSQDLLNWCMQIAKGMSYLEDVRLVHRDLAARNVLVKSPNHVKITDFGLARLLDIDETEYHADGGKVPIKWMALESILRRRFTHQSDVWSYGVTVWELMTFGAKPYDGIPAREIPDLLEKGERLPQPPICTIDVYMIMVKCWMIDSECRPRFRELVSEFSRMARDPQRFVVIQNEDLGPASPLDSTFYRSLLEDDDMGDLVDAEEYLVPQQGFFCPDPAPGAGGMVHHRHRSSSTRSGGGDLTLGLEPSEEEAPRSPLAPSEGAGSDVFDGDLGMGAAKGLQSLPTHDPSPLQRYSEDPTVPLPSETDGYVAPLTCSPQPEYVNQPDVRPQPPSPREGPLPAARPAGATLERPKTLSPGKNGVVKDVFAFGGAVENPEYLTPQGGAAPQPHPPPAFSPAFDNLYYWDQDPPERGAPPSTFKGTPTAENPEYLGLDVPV
T1 sequence (O08775 786-1343): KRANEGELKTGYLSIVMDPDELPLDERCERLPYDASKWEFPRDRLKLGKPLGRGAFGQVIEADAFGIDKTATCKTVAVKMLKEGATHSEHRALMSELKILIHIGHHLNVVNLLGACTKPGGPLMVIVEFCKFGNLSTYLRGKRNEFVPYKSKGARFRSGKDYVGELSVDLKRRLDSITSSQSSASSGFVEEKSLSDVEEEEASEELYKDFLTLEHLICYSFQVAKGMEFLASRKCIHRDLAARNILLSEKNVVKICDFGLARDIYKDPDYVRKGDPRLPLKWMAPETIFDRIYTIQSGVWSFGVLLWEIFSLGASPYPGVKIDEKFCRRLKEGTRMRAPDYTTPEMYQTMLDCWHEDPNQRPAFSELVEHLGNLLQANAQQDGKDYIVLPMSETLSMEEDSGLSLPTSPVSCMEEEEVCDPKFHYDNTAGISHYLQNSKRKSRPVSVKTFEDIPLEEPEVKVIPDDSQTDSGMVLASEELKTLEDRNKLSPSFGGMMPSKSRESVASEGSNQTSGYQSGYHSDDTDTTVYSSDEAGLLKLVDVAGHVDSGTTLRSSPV
T3 sequence (P06493 whole entry): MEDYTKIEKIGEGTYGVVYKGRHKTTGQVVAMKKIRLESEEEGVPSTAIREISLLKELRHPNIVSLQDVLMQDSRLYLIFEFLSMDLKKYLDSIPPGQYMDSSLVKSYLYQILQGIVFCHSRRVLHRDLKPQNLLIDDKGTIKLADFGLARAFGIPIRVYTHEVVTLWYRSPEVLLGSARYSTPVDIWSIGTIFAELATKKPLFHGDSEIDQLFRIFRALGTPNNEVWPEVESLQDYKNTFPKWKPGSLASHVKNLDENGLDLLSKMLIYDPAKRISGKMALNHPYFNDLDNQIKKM
T3 sequence (P14635 whole entry partner): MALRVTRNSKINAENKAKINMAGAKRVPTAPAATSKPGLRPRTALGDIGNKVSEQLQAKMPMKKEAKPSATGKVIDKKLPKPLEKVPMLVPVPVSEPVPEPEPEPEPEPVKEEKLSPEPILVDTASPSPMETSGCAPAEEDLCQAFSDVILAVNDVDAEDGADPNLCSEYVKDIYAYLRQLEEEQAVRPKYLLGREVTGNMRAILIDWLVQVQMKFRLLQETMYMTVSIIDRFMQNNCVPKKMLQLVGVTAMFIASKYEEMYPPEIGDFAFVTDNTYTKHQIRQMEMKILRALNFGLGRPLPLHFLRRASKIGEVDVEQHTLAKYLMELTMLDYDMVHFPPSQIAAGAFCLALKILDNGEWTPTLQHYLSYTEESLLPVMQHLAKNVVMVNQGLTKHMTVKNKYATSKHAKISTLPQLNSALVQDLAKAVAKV

In the case of `CNc1ncnc(Oc2ccc3[nH]ccc3c2)c1C=NOC` [Cpd 3, 4-(1H-indol-5-yloxy)-6-methylamino-pyrimidine-5-carbaldehyde O-methyl-oxime], the IC50 in experiment [1] is greater than 100 µM; in the experiment with A375 malignant melanoma it was greater than 10 µM; at HER2 cytoplasmic domain it was greater than 100 µM; with HCT-116 colon carcinoma, greater than 10 µM; at CDK1:Cyclin-B, greater than 100 µM; in experiment [2] it was greater than 10 µM. Further, the IC50 against RET cytoplasmic domain and against murine Aurora-A was greater than 100 µM throughout.
As to `CON=Cc1c(NOC)ncnc1Oc1ccc2[nH]ccc2c1` [Cpd 4, 4-(1H-indol-5-yloxy)-6-methoxyamino-pyrimidine-5-carbaldehyde O-methyl-oxime], the IC50 in experiment [1] is 4.77 µM; in the experiment with A375 malignant melanoma, greater than 10 µM; at HER2 cytoplasmic domain, greater than 10 µM; in the experiment on HCT-116 colon carcinoma, 38.3 µM; against CDK1:Cyclin-B, greater than 100 µM; in experiment [2], greater than 10 µM. The results for the IC50 against RET cytoplasmic domain and at murine Aurora-A were roughly 100 µM and greater than 100 µM, respectively.
For the compound `Cc1cc2c(F)c(Oc3ncnc(N)c3C=NOCCCN3CCCC3)ccc2[nH]1` [Cpd 18, 4-amino-6-(4-fluoro-2-methyl-1H-indol-5-yloxy)-pyrimidine-5-carbaldehyde O-(3-pyrrolidin-1-yl-propyl)-oxime], the IC50 in experiment [1] was 0.065 µM; in the experiment with A375 malignant melanoma, 2.61 µM; at HER2 cytoplasmic domain it was 1.49 µM; in the experiment with HCT-116 colon carcinoma, 4.5 µM; at CDK1:Cyclin-B, greater than 100 µM; in experiment [2], 4.18 µM. Besides, the half-inhibitory concentration (IC50) at RET cytoplasmic domain was 8.11 µM; on murine Aurora-A it was greater than 10 µM.
For the compound `Cc1cc2c(F)c(Oc3ncnc(N)c3C=NOCCCN3CCOCC3)ccc2[nH]1` [Cpd 19, 4-amino-6-(4-fluoro-2-methyl-1H-indol-5-yloxy)-pyrimidine-5-carbaldehyde O-(3-morpholin-4-yl-propyl)-oxime], the IC50 in experiment [1] was roughly 0.1 µM; in the experiment with A375 malignant melanoma, 3.82 µM; against HER2 cytoplasmic domain, 1.23 µM; in the experiment with HCT-116 colon carcinoma, 9.24 µM; against CDK1:Cyclin-B, greater than 100 µM; in experiment [2], 4.91 µM. Further, the results for the IC50 against RET cytoplasmic domain and at murine Aurora-A were 3.58 µM and greater than 100 µM, respectively.
`Cc1cc2c(F)c(Oc3ncnc(N)c3C=NOCCCN3CCN(S(C)(=O)=O)CC3)ccc2[nH]1` [Cpd 22, 4-amino-6-(4-fluoro-2-methyl-1H-indol-5-yloxy)-pyrimidine-5-carbaldehyde O-[3-(4-methanesulfonyl-piperazin-1-yl)-propyl]-oxime]: the concentration for half-maximal inhibition (IC50) is 0.045 µM in experiment [1]; greater than 10 µM with A375 malignant melanoma; 1.41 µM against HER2 cytoplasmic domain; greater than 10 µM in the experiment with HCT-116 colon carcinoma; greater than 100 µM against CDK1:Cyclin-B; greater than 10 µM in experiment [2]. The concentration for half-maximal inhibition (IC50) is 2.77 µM on RET cytoplasmic domain and greater than 100 µM against murine Aurora-A.
Take `CCCCON=Cc1c(N)ncnc1Oc1ccc2[nH]c(C)cc2c1F` [Cpd 37, 4-amino-6-(4-fluoro-2-methyl-1H-indol-5-yloxy)-pyrimidine-5-carbaldehyde O-butyl-oxime]: the half-maximal inhibitory concentration (IC50) in the experiment on A375 malignant melanoma is 0.446 µM; at HER2 cytoplasmic domain it was greater than 100 µM; in the experiment on HCT-116 colon carcinoma it was 3 µM; on CDK1:Cyclin-B it was greater than 100 µM; in experiment [2] it was 0.607 µM; on RET cytoplasmic domain it was greater than 100 µM. This compound also gave an IC50 against murine Aurora-A greater than 100 µM.
As to `CON=Cc1c(N)ncnc1Oc1ccc2c(c1)cc(C)n2C(=O)NCCN(C)C` [Cpd 41, 5-[6-amino-5-(methoxyimino-methyl)-pyrimidin-4-yloxy]-2-methyl-indole-1-carboxylic acid (2-dimethylamino-ethyl)-amide], the IC50 is 0.0424 µM in experiment [1]; greater than 1 µM in the experiment with A375 malignant melanoma; greater than 10 µM on HER2 cytoplasmic domain; greater than 10 µM with HCT-116 colon carcinoma; greater than 100 µM against CDK1:Cyclin-B; greater than 10 µM in experiment [2]. On RET cytoplasmic domain, this compound registered an IC50 greater than 10 µM.
